Data as given in patent US11021475B2, “Amide-substituted heterocyclic compounds useful as modulators of IL-12, IL-23 and/or IFN alpha responses” (Bristol-Myers Squibb Company, priority 2012, dated 2021).
Read-outs that look alike come from different tables or passages of the source.

How the values were obtained:
[1] = test system: IL-23 stimulated Kit225 T cells (STAT-dependent luciferase reporter); experiment: Kit225 T cell assay, IL-23-stimulated STAT-dependent luciferase reporter; type: cell-based, human
Experimental: (§1) Kit225 T cells with a stably-integrated STAT-dependent luciferase reporter were plated in RPMI (Gibco) containing 10% heat-inactivated FBS (Gibco) and 100 U/mL PenStrep (Gibco). The cells were then stimulated with either 20 ng/mL human recombinant IL-23 or 200 U/mL human recombinant IFNα (PBL InterferonSource) for 5-6 hours. Luciferase expression was measured using the STEADY-GLO® Luciferase Assay System (Promega) according to the manufacturer's instructions. Inhibition data were calculated by comparison to no inhibitor control wells for 0% inhibition and non-stimulated control wells for 100% inhibition.

[2] = test system: IFNα stimulated Kit225 T cells (STAT-dependent luciferase reporter); experiment: Kit225 T cell assay, IFNα-stimulated STAT-dependent luciferase reporter; type: cell-based, human
Experimental: as §1

[3] = 20 ng/mL human recombinant IL-23, 5-6 hours, read-out: IL-23 Kit225 Reporter (IC50)
[4] = 200 U/mL human recombinant IFNα, 5-6 hours, read-out: IFNα Kit225 Reporter (IC50)
[5] = KIT225, 20 ng/mL human recombinant IL-23, 5-6 hours, read-out: IL-23 Kit225 Reporter (IC50)
[6] = KIT225, 200 U/mL human recombinant IFNα, 5-6 hours, read-out: IFNα Kit225 Reporter (IC50)
[7] = Homo sapiens, KIT225, read-out: IL-23 Kit225 Reporter (IC50, nM)
[8] = Homo sapiens, KIT225, read-out: IFNα Kit225 Reporter (IC50, nM)

Structure (SMILES)	IC50 [1, 3]	IC50 [2, 4]	also measured
CNC(=O)c1nnc(Nc2cc(OC)ccn2)cc1Nc1cccc(-c2ncn(C)n2)c1OC [Example 133]	8.03 nM	3.81 nM	
CNC(=O)c1nnc(Nc2cc(COC)ccn2)cc1Nc1cccc(-c2ncn(C)n2)c1OC [Example 135]	3.83 nM	1.4 nM	
CNC(=O)c1nnc(NC(=O)C2CC2)cc1Nc1cccc(-c2cnn(C)n2)c1OC [Example 136]	20 nM	6.04 nM	
CNC(=O)c1nnc(Nc2cc(C)nc(C)n2)cc1Nc1cccc(-c2cnn(C)n2)c1OC [Example 137]	10 nM	6.92 nM	
CNC(=O)c1nnc(NC(=O)C2CC2)cc1Nc1cccc(-c2cn(C)nn2)c1OC [Example 138]	30 nM	30 nM	
C#Cc1cccc(Nc2cc(NC(=O)C3CC3)nnc2C(=O)NC)c1OC [Example 139]	210 nM	150 nM	
CNC(=O)c1nnc(NC(=O)C2CC2)cc1Nc1cccc(-c2n[nH]c(C)n2)c1OC [Example 141]	40 nM	20 nM	
CNC(=O)c1nnc(NC(=O)C2CC2)cc1Nc1cccc(-c2nnnn2C)c1OC [Example 143]	40 nM	140 nM	
CNC(=O)c1nnc(Nc2cc(C)nc(C)n2)cc1Nc1cccc(-c2nnn(C)n2)c1OC [Example 144]	10 nM	3.15 nM	
CNC(=O)c1nnc(Nc2ccccn2)cc1Nc1cccc(-c2nnnn2C)c1OC [Example 145]	10 nM	8.44 nM	
CNC(=O)c1nnc(Nc2cc(C)n(C)n2)cc1Nc1cccc(-c2n[nH]c(C)n2)c1OC [Example 148]	20 nM	10 nM	
CNC(=O)c1nnc(NC(=O)C2CC2)cc1Nc1cccc(-c2nnc(C)o2)c1OC [Example 149]	170 nM	50 nM	
CNC(=O)c1nnc(Nc2cc(C)c(F)cn2)cc1Nc1cccc(-c2nnc(C)o2)c1OC [Example 150]	20 nM	10 nM	
CNC(=O)c1nnc(Nc2cc(C)n(C)n2)cc1Nc1cccc(-c2nnc(C)o2)c1OC [Example 152]	130 nM	30 nM	
CNC(=O)c1nnc(Nc2cc(C)nc(C)n2)cc1Nc1cccc(-c2nnc(C)o2)c1OC [Example 153]	150 nM	30 nM	
CNC(=O)c1nnc(Nc2cc(C(C)O)ccn2)cc1Nc1cccc(-c2cscn2)c1OC (stereo not drawn) [Example 157]	230 nM	150 nM	
CNC(=O)c1nnc(Nc2ccnc(C)n2)cc1Nc1cccc(-c2ncccn2)c1OC [Example 158]	10 nM	20 nM	
CNC(=O)c1nnc(NC(=O)C2CC2)cc1Nc1cccc(-c2cn(C)cn2)c1OC [Example 159]	110 nM	80 nM	
CNC(=O)c1nnc(Nc2cc(C)n(C)n2)cc1Nc1cccc(-c2cnc(C)s2)c1OC [Example 161]	210 nM	210 nM	
[2H]C([2H])([2H])NC(=O)c1nnc(NC(=O)C2CC2)cc1Nc1cccc(-c2nc(C)no2)c1OC [Example 162, 6-(cyclopropanecarboxamido)-4-((2-methoxy-3-(3-methyl-1,2,4-oxadiazol-5-yl)phenyl)amino)-N-trideuteromethylpyridazine-3-carboxamide]			IC50 [1, 5]: 120 nM; IC50 [2, 6]: 60 nM
[2H]C([2H])([2H])NC(=O)c1nnc(Nc2ccccn2)cc1Nc1cccc(-c2nc(C)no2)c1OC [Example 163, 4-((2-methoxy-3-(3-methyl-1,2,4-oxadiazol-5-yl)phenyl)amino)-N-trideutero-methyl-6-(pyridin-2-ylamino)pyridazine-3-carboxamide]			IC50 [1, 5]: 40 nM; IC50 [2, 6]: 30 nM
[2H]C([2H])([2H])NC(=O)c1nnc(Nc2ccccn2)cc1Nc1cccc(C(=O)NCCOC)c1OC [Example 164]			IC50 [1, 5]: 300 nM; IC50 [2, 6]: 170 nM
CNC(=O)c1nnc(Nc2ccccn2)cc1Nc1cccc(C(=O)NC2CC2)c1OC [Example 165]	340 nM	230 nM	
CNC(=O)c1nnc(Nc2ccccn2)cc1Nc1cccc(C(=O)NCC(C)(C)O)c1OC [Example 166]	270 nM	210 nM	

Structure (SMILES)	IC50 [1, 3]	IC50 [2, 4]	also measured
CNC(=O)c1nnc(Nc2ccccn2)cc1Nc1cccc(C(=O)NCCC(C)(C)O)c1OC [Example 168]	100 nM	80 nM	
CNC(=O)c1cccc(Nc2cc(Nc3ccccn3)nnc2C(=O)NC)c1OC [Example 169]	40 nM	30 nM	
CNC(=O)c1nnc(Nc2ccccn2)cc1Nc1cccc(C(=O)NCCCO)c1OC [Example 170]	230 nM	390 nM	
CNC(=O)c1nnc(Nc2ccccn2)cc1Nc1cccc(C(=O)NCC(F)(F)F)c1OC [Example 171]	50 nM	130 nM	
[2H]C([2H])([2H])NC(=O)c1nnc(Nc2ccccn2)cc1Nc1cccc(-c2nnc[nH]2)c1OC [Example 172]			IC50 [1, 5]: 5.45 nM; IC50 [2, 6]: 6.19 nM
[2H]C([2H])([2H])NC(=O)c1nnc(NC(=O)C2CC2)cc1Nc1cccc(-c2nc[nH]n2)c1OC [Example 173]			IC50 [1, 7]: 120 nM; IC50 [2, 8]: 20 nM
[2H]C([2H])([2H])NC(=O)c1nnc(NC(=O)C2CC2)cc1Nc1cccc(-c2ncn(CC)n2)c1OC [Example 174]			IC50 [1, 7]: 20 nM; IC50 [2, 8]: 6.97 nM
CNC(=O)c1nnc(NC(=O)C2CC2)cc1Nc1cccc(-c2ncn(CCF)n2)c1OC [Example 175]	20 nM	10 nM	
CCn1cnc(-c2cccc(Nc3cc(Nc4ccccn4)nnc3C(=O)NC)c2OC)n1 [Example 177]	1.52 nM	1.63 nM	
CNC(=O)c1nnc(Nc2ccccn2)cc1Nc1cccc(-c2ncnn2C)c1OC [Example 178]	30 nM	10 nM	
CNC(=O)c1nnc(NC(=O)C2CC2)cc1Nc1cccc(-c2ncnn2C)c1OC [Example 179]	450 nM	140 nM	
CNC(=O)c1nnc(Nc2cc(C)c(F)cn2)cc1Nc1cccc(-c2ncnn2C)c1OC [Example 180]	60 nM	20 nM	
[2H]C([2H])([2H])NC(=O)c1nnc(NC(=O)C2CC2)cc1Nc1cccc(-c2nc(C)n(C)n2)c1OC [Example 181]			IC50 [1, 5]: 40 nM; IC50 [2, 6]: 20 nM
[2H]C([2H])([2H])NC(=O)c1nnc(NC(=O)C2CC2)cc1Nc1cccc(-c2nc(C)nn2C)c1OC [Example 182]			IC50 [1, 5]: 190 nM; IC50 [2, 6]: 80 nM
CNC(=O)c1nnc(Nc2cc(C)nc(C)n2)cc1Nc1cccc(-c2nc(C)nn2C)c1OC [Example 184]	6.41 nM	7.2 nM	
[2H]C([2H])([2H])NC(=O)c1nnc(NC(=O)C2CC2)cc1Nc1cccc(-c2cn[nH]c2)c1OC [Example 185]			IC50 [1, 5]: 280 nM; IC50 [2, 6]: 120 nM
CNC(=O)c1nnc(NC(=O)C2CC2)cc1Nc1cccc(-c2cnn(CC(C)(C)O)c2)c1OC [Example 189]	150 nM	30 nM	
CNC(=O)c1nnc(NC(=O)C2CC2)cc1Nc1cccc(-c2cn(C(C)C)nn2)c1OC [Example 190]	20 nM	20 nM	
CNC(=O)c1nnc(Nc2cc(C)nc(C)n2)cc1Nc1cccc(-c2c[nH]nn2)c1OC [Example 191]	10 nM	8.63 nM	
[2H]C([2H])([2H])NC(=O)c1nnc(NC(=O)C2CC2)cc1Nc1cccc(-c2c[nH]nn2)c1OC [Example 192]			IC50 [1, 5]: 40 nM; IC50 [2, 6]: 30 nM
CNC(=O)c1nnc(Nc2cc(C)n(C)n2)cc1Nc1cccc(-c2c[nH]nn2)c1OC [Example 193]	30 nM	40 nM	
[2H]C([2H])([2H])NC(=O)c1nnc(NC(=O)C2CC2)cc1Nc1cccc(-c2cc[nH]n2)c1OC [Example 195]			IC50 [1, 5]: 10 nM; IC50 [2, 6]: 20 nM
[2H]C([2H])([2H])NC(=O)c1nnc(NC(=O)C2CC2)cc1Nc1cccc(-c2ccn(CC(C)(C)O)n2)c1OC [Example 196]			IC50 [1, 5]: 70 nM; IC50 [2, 6]: 160 nM
CNC(=O)c1nnc(Nc2cc(C)c(F)cn2)cc1Nc1cccc(-c2ccnn2C)c1OC [Example 197]	290 nM	260 nM	
